In ChEMBL document CHEMBL1201862, “PubChem BioAssay data set” (2004):
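Briefly, cells in 96-well plates were exposed to five compound concentrations for 48 h, and endpoints were estimated by linear interpolation. GI50 marks 50% less growth.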 Active and inactive are the calls of the source. Cut-off read from the data, not from the text of the source: active = GI50 up to about 1.1 µM and inactive = higher.

Columns and labels:
Experiment in all cases: inhibition of tumour cell growth, NCI panel, 48 h
BT-549 = system: BT-549
Hs-578T = system: Hs-578T
T47D = system: T47D
DMS-273 = system: DMS-273
KM-20L2 = system: KM-20L2
M19-MEL = system: M19-MEL
XF498 = system: XF498
SNB-78 = system: SNB-78

Compound	GI50 (BT-549)	GI50 (Hs-578T)	GI50 (T47D)	GI50 (DMS-273)	GI50 (KM-20L2)	GI50 (M19-MEL)	GI50 (XF498)	GI50 (SNB-78)
C=C(Br)CN(C)CC(=C)Br	> 100 µM (inactive)	> 100 µM (inactive)	> 100 µM (inactive)	–	–	–	–	–
O=C1[C@@H]2[C@@H](CN3CN(c4ccccc4)N=C(c4ccccc4)[C@@]23c2ccccc2)C(=O)N1c1ccccc1	3.61 µM (inactive)	20.3 µM (inactive)	2.58 µM (inactive)	–	–	–	–	–
Cc1cccc(NC(=S)N/N=C2\C(=O)Nc3ccccc32)c1	–	> 100 µM (inactive)	> 100 µM (inactive)	–	–	–	–	–
COc1ccc(CCn2ccc(C)n2)c(OC)c1	> 100 µM (inactive)	> 100 µM (inactive)	68.9 µM (inactive)	–	–	–	–	–
CC/C=C(\C(=C/CC)[N+](=O)[O-])[N+](=O)[O-]	18.1 µM (inactive)	–	28.4 µM (inactive)	–	–	–	–	–
CCCNC(=O)C(C)C1CCC2(C)C=CC(=O)C(C)=C2C1O (centres undefined)	–	–	–	> 100 µM (inactive)	> 100 µM (inactive)	> 100 µM (inactive)	> 100 µM (inactive)	–
Oc1cc(Cl)cc2cc(Br)cnc12	1.53 µM (inactive)	4.62 µM (inactive)	7.28 µM (inactive)	–	–	–	–	–
O=C(Nc1nc2c(=O)[nH]cnc2s1)c1ccccc1	> 100 µM (inactive)	61.5 µM (inactive)	–	–	–	–	–	–
Cc1ccc(S(=O)(=O)N(c2ccccc2F)C2CCCCC2O)cc1 (centres undefined)	14.6 µM (inactive)	33 µM (inactive)	–	–	–	–	–	–
O=C1OC(c2ccccc2Br)=N/C1=C/c1ccccc1	–	31.3 µM (inactive)	> 100 µM (inactive)	–	–	–	–	–
COc1cc([C@@H]2c3cc4c(cc3[C@@H](Nc3ccc(Cl)cc3C(=O)c3ccccc3Cl)[C@H]3COC(=O)[C@H]23)OCO4)cc(OC)c1OC	–	0.0241 µM (active)	> 100 µM (inactive)	–	–	–	–	–
CC1C2CC(C(C3C(=O)C4CC3C(C)(C)C4C)C2=O)C1(C)C (centres undefined)	> 100 µM (inactive)	> 100 µM (inactive)	> 100 µM (inactive)	–	–	–	–	–
COC(=O)C1(F)C(=O)NC(=O)NC1O (centres undefined)	–	> 100 µM (inactive)	> 100 µM (inactive)	–	–	–	–	–
Cc1ccc2oc(=O)c(-c3ccccc3)nc2c1	–	–	–	17.6 µM (inactive)	–	23.1 µM (inactive)	33.7 µM (inactive)	–
COc1ccc(C2c3cc4c(cc3OC(N3CCOCC3)C2C)OCO4)cc1OC (centres undefined)	7.48 µM (inactive)	3.51 µM (inactive)	4.99 µM (inactive)	–	–	–	–	–
CC/C=C/C[C@H](O[Si](C)(C)C(C)(C)C)[C@H]1C[C@H]2O[C@H]([C@@H](O)C#C[Si](C)(C)C)C[C@H]2O1	19.2 µM (inactive)	15.3 µM (inactive)	7.55 µM (inactive)	–	–	–	–	–
CC1(C)C2CCC1(C)[C@H](O)[C@H]2Nc1cc(C(F)(F)F)cc(C(F)(F)F)c1 (some centres undefined)	3.91 µM (inactive)	–	2.59 µM (inactive)	–	–	–	–	–
N#Cc1ccccc1C(Cl)(Cl)c1cnccn1	–	–	–	37.2 µM (inactive)	–	54.1 µM (inactive)	17.9 µM (inactive)	46.3 µM (inactive)
CC1CCC(=O)C(C(O)CC2CC(=O)N(c3ccccc3)C(=O)C2)C1 (centres undefined)	–	–	–	> 100 µM (inactive)	> 100 µM (inactive)	> 100 µM (inactive)	–	> 100 µM (inactive)
CC(CO)(CO)N1C(=O)C2C3C=CC(C3)C2C1=O (centres undefined)	–	> 100 µM (inactive)	> 100 µM (inactive)	–	–	–	–	–

Compound	GI50 (BT-549)	GI50 (Hs-578T)	GI50 (T47D)	GI50 (DMS-273)	GI50 (KM-20L2)	GI50 (M19-MEL)	GI50 (XF498)	GI50 (SNB-78)
CCn1c(SCC(=O)N/N=C/c2ccccc2)nc2ccccc2c1=O	17.3 µM (inactive)	8.41 µM (inactive)	21.7 µM (inactive)	–	–	–	–	–
COc1ccc2cc(CN3CCC(C4CCN(Cc5ccc6cc(OC)ccc6c5)CC4)CC3)ccc2c1	> 10 µM (inactive)	4.61 µM (inactive)	1.93 µM (inactive)	–	–	–	–	–
CC12CCC3C(CCC4=CC(O)CCC43C=O)C1(O)CCC2c1ccc(=O)oc1 (centres undefined)	–	–	–	0.00497 µM (active)	0.00832 µM (active)	0.0128 µM (active)	–	0.0075 µM (active)
O=C(NS(=O)(=O)OCC(Cl)(Cl)Cl)SCCC(F)(F)C(F)(F)C(F)(F)C(F)(F)C(F)(F)C(F)(F)F	49 µM (inactive)	19 µM (inactive)	27.9 µM (inactive)	–	–	–	–	–
CC1=CCC2CC1C(C(=O)c1c[nH]c3ccccc13)=NC2(C)C (centres undefined)	40 µM (inactive)	41.9 µM (inactive)	29.4 µM (inactive)	–	–	–	–	–
CSc1nc2c(c(=O)n1C)N=C(c1ccc(Cl)cc1)CC(c1ccccc1)N2 (centres undefined)	24.9 µM (inactive)	–	–	–	–	–	–	–
O=c1cnn(C/C=C\CO)c(=O)[nH]1	–	> 100 µM (inactive)	> 100 µM (inactive)	–	–	–	–	–
CSCCC(NC(=O)OCc1ccccc1)NC(=O)OCc1ccccc1	–	> 100 µM (inactive)	59.8 µM (inactive)	–	–	–	–	–
C[C@]12CC[C@H](OC(=O)Cc3ccc(N(CCCl)CCCl)cc3)CC1=CC[C@@H]1[C@@H]2CC[C@]2(C)C(=O)CC[C@@H]12	> 100 µM (inactive)	> 100 µM (inactive)	92.5 µM (inactive)	–	–	–	–	–
CCCc1[nH]c(SCCCCCCCCSc2nc(-c3ccc(F)cc3)c(CCC)[nH]2)nc1-c1ccc(F)cc1	–	–	–	44.3 µM (inactive)	16.1 µM (inactive)	29.9 µM (inactive)	–	26.2 µM (inactive)
Cc1cc(O)nc(NNC(C#N)c2ccc(O)cc2)n1 (centres undefined)	–	–	–	> 100 µM (inactive)	> 100 µM (inactive)	> 100 µM (inactive)	–	83.8 µM (inactive)
Oc1ccc(-c2nc3ccc4ccccc4c3c3c2CCCC3)c(O)c1	32.7 µM (inactive)	24.2 µM (inactive)	7.5 µM (inactive)	–	–	–	–	–
O=C(O)CNC(=O)c1cccc2c(=O)c3ccccc3[nH]c12	91.8 µM (inactive)	> 100 µM (inactive)	> 100 µM (inactive)	–	–	–	–	–
CC(Cc1ccc2c(c1)OCO2)N(C)C(=O)C1=CCN(C)CC1 (centres undefined)	> 100 µM (inactive)	> 100 µM (inactive)	> 100 µM (inactive)	–	–	–	–	–
CC(=O)n1nnc2ccc([N+](=O)[O-])cc21	–	–	–	> 100 µM (inactive)	> 100 µM (inactive)	> 100 µM (inactive)	> 100 µM (inactive)	> 100 µM (inactive)
CCOC(=O)/C=C1\Oc2ccccc2C1(C)O (centres undefined)	–	–	–	> 100 µM (inactive)	> 100 µM (inactive)	> 100 µM (inactive)	–	> 100 µM (inactive)
O=C(/C=C/c1ccccc1)Oc1cccc(O)c1	> 100 µM (inactive)	25.9 µM (inactive)	59.6 µM (inactive)	–	–	–	–	–
CCC(Sc1cc(Cl)c(C)cc1S(=O)(=O)Nc1nc(N)nc(N(C)C)n1)C(=O)O (centres undefined)	> 10 µM (inactive)	> 10 µM (inactive)	> 10 µM (inactive)	–	–	–	–	–
COc1ccc(/C=c2/s/c(=C(\C#N)c3nc4ccccc4[nH]3)n(-c3ccccc3)c2=O)cc1	21 µM (inactive)	4.45 µM (inactive)	> 100 µM (inactive)	36.8 µM (inactive)	> 100 µM (inactive)	> 100 µM (inactive)	30.1 µM (inactive)	–
COc1ccc(NC2Oc3cc4c(cc3C(c3cc(OC)c(O)c(OC)c3)C2C)OCO4)cc1 (centres undefined)	10.4 µM (inactive)	–	9.06 µM (inactive)	–	–	–	–	–

Compound	GI50 (BT-549)	GI50 (Hs-578T)	GI50 (T47D)	GI50 (DMS-273)	GI50 (KM-20L2)	GI50 (M19-MEL)	GI50 (XF498)	GI50 (SNB-78)
CC(C)=C[C@@H]1C[C@H](C)[C@H]2CC[C@H](C)[C@H]3C(=O)C(O)=C(C)C(=O)[C@]123	> 100 µM (inactive)	> 100 µM (inactive)	–	–	–	–	–	–
COc1ccc2c(c1)c(=O)c1ccccc1n2/C=C/C(=O)O	–	–	–	> 41.3 µM (inactive)	26.7 µM (inactive)	–	> 100 µM (inactive)	> 100 µM (inactive)
NC(=O)c1oc([N+](=O)[O-])c(-c2ccccc2)c1-c1ccccc1	8 µM (inactive)	0.0752 µM (active)	16.3 µM (inactive)	–	–	–	–	–
C=C(Cl)C(Br)(CCl)CCC(Br)C(C)(C)Cl (centres undefined)	2.52 µM (inactive)	3.66 µM (inactive)	1.15 µM (inactive)	–	–	–	–	–
C[C@]12CCC(=O)C=C1CC[C@@H]1C2CC[C@]2(C)NC(=O)C(C#N)CC12 (some centres undefined)	–	–	–	> 100 µM (inactive)	53.6 µM (inactive)	> 100 µM (inactive)	> 100 µM (inactive)	> 100 µM (inactive)
C/C(CC(O)(C(F)(F)F)C(F)(F)F)=N/Nc1ccc([N+](=O)[O-])cc1[N+](=O)[O-]	–	2.81 µM (inactive)	1.08 µM (active)	–	–	–	–	–
CC(=O)N(C)SCC(NC(=O)C(Cc1ccccc1)NC(=O)OCc1ccccc1)C(=O)NC(Cc1ccccc1)C(=O)NC(Cc1cn(C=O)c2ccccc12)C(=O)NC(CCCCNC(=O)OCc1ccccc1)C(=O)NC(C(=O)NC(CSN(C)C(C)=O)C(=O)NO)C(C)OCc1ccccc1 (centres undefined)	> 100 µM (inactive)	> 100 µM (inactive)	> 100 µM (inactive)	–	–	–	–	–
CC1OC(n2cc(F)c(=O)[nH]c2=O)CCC1O (centres undefined)	> 100 µM (inactive)	99.1 µM (inactive)	> 100 µM (inactive)	> 100 µM (inactive)	95.1 µM (inactive)	> 100 µM (inactive)	–	> 100 µM (inactive)
COc1ccc2nc3c(C(=O)NCCN(C)C)cccc3cc2c1	–	–	–	1.28 µM (inactive)	0.562 µM (active)	–	1.85 µM (inactive)	3.76 µM (inactive)
Nc1nc(Cl)cc(NCC2(CO)CCC(OCc3ccccc3)C2)n1 (centres undefined)	13.9 µM (inactive)	14.4 µM (inactive)	1.39 µM (inactive)	–	–	–	–	–
Cc1nc2ccccc2cc1C[N+]12CN3CN(CN(C3)C1)C2	19.3 µM (inactive)	35.6 µM (inactive)	18.7 µM (inactive)	–	–	–	–	–
CCCCCCOP(=O)(OCCCCCC)C(NC(=O)OCC)(C(F)(F)F)C(F)(F)F	22.5 µM (inactive)	51.5 µM (inactive)	39.5 µM (inactive)	–	–	–	–	–
CCOC(=O)N/N=C(/N)Cc1ccccc1	> 100 µM (inactive)	> 100 µM (inactive)	> 100 µM (inactive)	–	–	–	–	–
O=C(NCCNCCO)N/N=C/c1cccc([N+](=O)[O-])c1	–	–	–	> 100 µM (inactive)	> 100 µM (inactive)	> 100 µM (inactive)	–	> 100 µM (inactive)
C=C(C)COc1ccc2c(c1)CCC1C2CCC2(C)C(=O)/C(=N/O)CC12 (centres undefined)	6.41 µM (inactive)	3.67 µM (inactive)	2.2 µM (inactive)	–	–	–	–	–
COc1ccc(-c2oc3cc(-c4cc5oc(-c6ccc(OC)cc6)c(-c6ccc(OC)cc6)c5cc4OC)c(OC)cc3c2-c2ccc(OC)cc2)cc1	> 100 µM (inactive)	> 100 µM (inactive)	–	–	–	–	–	–
CN(C)CCC1(C2=CCCC2)CC/C(=C\c2ccccc2)C1=O (centres undefined)	–	–	–	15.7 µM (inactive)	13.1 µM (inactive)	15.2 µM (inactive)	–	19.7 µM (inactive)
CCCCCC[N+](C)(C)Cc1ccc(C[N+](C)(C)CCCCCC)cc1	–	–	–	1.83 µM (inactive)	6.56 µM (inactive)	1.94 µM (inactive)	–	1.16 µM (inactive)
O=S(=O)(N/C(=N\O)Nc1ccc(Cl)cc1)c1cc2ccccc2s1	17.1 µM (inactive)	18.7 µM (inactive)	21.9 µM (inactive)	–	–	–	–	–
